This test concerns E. coli ΔemrE mutants. The test is described as follows: Antimicrobial susceptibility assays of efflux pump deletion mutants. To be noted: ΔemrE mutants in ΔacrAB ΔacrEF background vs parent. In kind it is cell-based, Escherichia coli. Here is the method: The PCR mixtures contained 50 ng of E. coli chromosomal DNA, 40 pmol of each primer, 0.2 mM (each) deoxynucleoside triphosphate, 2 mM MgSO4 and 10% (vol/vol) dimethylsufoxide in 1× thermo reaction buffer (New England Biolabs, Mississauga, Ontario, Canada) and were heated for 5 min at 94° C. before the addition of 2 U of Vent DNA polymerase (New England Biolabs) per reaction. The reaction was then processed for 30 cycles of 40 sec: at 94° C., 40 sec at 56° C. and 40 sec at 72° C. before finishing with 10 min at 72° C. The PCR products to be used in each deletion were purified using a Qiaquick™ PCR purification kit (Qiagen Inc.), digested with BamHI and EcoRI or EcoRI and Sail as appropriate, and cloned into EcoRI-SalI-restricted pBluescript II SK(+) via a three-piece ligation. The resultant vectors, pXZL967 and pXZL983, carried deletions in emrE and emrD respectively, as confirmed by restriction analysis and nucleotide sequencing. Digestion of plasmids pXZL967 and pXZL983, with BamHI and SalI released fragments carrying the PCR-generated deletions of emrE (246 bp in-frame deletion), and emrD (1101 bp in-frame deletion), respectively, which were then cloned into BamHI-SalI-restricted pK03, yielding pXZL975, pXZL987, and pXZL1024 (selected on chloramphenicol (30 μg/ml)-containing LB agar at 30° C.). […]

In the case of `CC[n+]1c(-c2ccccc2)c2cc(N)ccc2c2ccc(N)cc21` [ethidium bromide], the “fold increase in MIC values (more susceptible)” value turned out to be 32 fold.

These data come from patent US20050255538A1, “Methods for screening for AcrAB efflux pump inhibitors” (priority 2002, published 2005).
